From ChEMBL document CHEMBL1146460, “Caulibugulones A-F, novel cytotoxic isoquinoline quinones and iminoquinones from the marine bryozoan Caulibugula intermis” (J Nat Prod, 2004)
In brackets after ≈: the same amount, converted by molar mass.

Test: Cytotoxicity against wild type mouse IC2 cells after 48 hrs by MTT assay
Conditions: IC2, 48 h

| SMILES | IC50 |
| --- | --- |
| CNC1=C(Cl)C(=O)c2ccncc2C1=O [CAULIBUGULONE C] | 0.22 µg/mL (≈ 0.988 µM) |
| CNC1=C/C(=N\CCO)c2ccncc2C1=O [CAULIBUGULONE F] | 0.1 µg/mL (≈ 0.432 µM) |
| CNC1=CC(=O)c2ccncc2C1=O [CAULIBUGULONE A] | 0.34 µg/mL (≈ 1.81 µM) |
| CNC1=CC(=N)c2ccncc2C1=O [CAULIBUGULONE E] | 0.03 µg/mL (≈ 0.16 µM) |
| O=C1C=C(NCCO)C(=O)c2cnccc21 [CAULIBUGULONE D] | 1.67 µg/mL (≈ 7.65 µM) |
| CNC1=C(Br)C(=O)c2ccncc2C1=O [CAULIBUGULONE B] | 0.28 µg/mL (≈ 1.05 µM) |
